Molecular target: T1, USP8 (Homo sapiens, UniProt P40818)
T1 construct: His tag (from vector pFastBac-HT) (N); made in house; host or cells: Sf9 or High Five insect cells (baculovirus)
T1 sequence (P40818 1-1118): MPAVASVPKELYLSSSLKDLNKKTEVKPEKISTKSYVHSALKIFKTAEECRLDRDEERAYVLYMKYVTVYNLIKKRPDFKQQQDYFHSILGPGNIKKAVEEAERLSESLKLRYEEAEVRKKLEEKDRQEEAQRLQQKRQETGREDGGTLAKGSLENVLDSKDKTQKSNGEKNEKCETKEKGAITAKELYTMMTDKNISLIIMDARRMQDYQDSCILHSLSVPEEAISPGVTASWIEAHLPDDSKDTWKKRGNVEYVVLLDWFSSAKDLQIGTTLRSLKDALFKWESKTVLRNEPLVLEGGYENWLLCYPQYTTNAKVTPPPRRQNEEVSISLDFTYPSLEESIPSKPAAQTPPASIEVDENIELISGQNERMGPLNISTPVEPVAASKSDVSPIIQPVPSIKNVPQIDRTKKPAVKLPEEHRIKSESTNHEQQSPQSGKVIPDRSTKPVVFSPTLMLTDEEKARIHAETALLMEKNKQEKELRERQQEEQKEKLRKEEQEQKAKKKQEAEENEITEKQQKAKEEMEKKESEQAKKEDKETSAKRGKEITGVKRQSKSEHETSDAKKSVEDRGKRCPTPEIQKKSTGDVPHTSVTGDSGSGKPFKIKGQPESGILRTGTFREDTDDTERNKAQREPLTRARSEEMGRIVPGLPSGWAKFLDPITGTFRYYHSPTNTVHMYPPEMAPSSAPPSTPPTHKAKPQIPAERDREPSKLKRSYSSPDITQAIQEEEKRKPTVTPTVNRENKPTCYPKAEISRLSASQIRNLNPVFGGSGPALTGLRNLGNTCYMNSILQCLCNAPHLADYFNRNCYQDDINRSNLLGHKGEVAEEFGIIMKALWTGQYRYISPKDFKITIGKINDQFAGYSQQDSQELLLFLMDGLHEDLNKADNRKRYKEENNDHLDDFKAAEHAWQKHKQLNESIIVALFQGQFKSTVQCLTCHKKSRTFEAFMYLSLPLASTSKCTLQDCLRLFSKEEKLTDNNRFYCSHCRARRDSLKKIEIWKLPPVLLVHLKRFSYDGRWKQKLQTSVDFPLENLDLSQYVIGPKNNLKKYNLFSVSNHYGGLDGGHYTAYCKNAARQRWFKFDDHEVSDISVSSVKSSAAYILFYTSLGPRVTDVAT
Test: USP8 Activity Assay
Assay type: biochemical
Settings: 400 nM Ub-AMC; 630 pM enzyme; pH8.8; pre-incubated 30 minutes at 25° C., 60 minutes at 37° C.; sigmoidal fit; read-out: USP 8 (Inhibition of cysteine protease activities)
Source text: The cDNA encoding USP8 was obtained by PCR amplification from placenta mRNA. USP8 cDNA was subcloned by PCR into a baculovirus expression vector (pFastBac-HT; Invitrogen). A cDNA encoding a mutated USP8 was generated by mutagenic PCR. The corresponding protein encodes a cysteine to alanine substitution at residue 786. The sequences were ascertained by sequencing of the entire open reading frame. Bacmids encoding USP7 were generated following DH10bac transposition. The corresponding bacmids were transfected into insect cells (Sf9). Viruses were recovered from culture supernatant and amplified twice. Insect cells (Sf9 or High Five; Invitrogen) were infected for 72 hours. Total cell lysates were harvested and lyzed in lysis buffer (Tris HCl 50 mM pH7.6; 0.75% NP40; 500 mM NaCl; 10% glycerol; 1 mM DTT; 10 mM imidazole; Protease Inhibitor Cocktail; AEBSF 20 μg.ml^−1; Aprotinin 10 μg.ml^−1). Proteins were affinity purified on metal affinity resins (Talon Metal affinity resin; BD Biosciences). Bound materials were extensively washed in wash buffer (50 mM Sodium Phosphate pH 7.0; 300 mM NaCl; 10 mM imidazole; 0.5% Triton X-100; 10% glycerol) and eluted from the resin in 250 mM imidazole-containing wash buffer. Proteins were dialyzed in dialysis buffer (Tris HCl pH 7.6 20 mM; NaCl 200 mM; DTT 1 mM; EDTA 1 mM; 10% Glycerol). Proteins purifications were analyzed on 4-12% NuPAGE (Invitrogen).
USP8 was diluted in USP buffer (50 mM Tris HCl; 0.5 mM EDTA; 5 mM DTT; 0.01% Triton X-100; Bovine Serum Albumin 0.05 mg.ml^−1 pH8.8). Compounds stocks (100 mM) were stored at −20° C. in DMSO.
Reactions were performed as duplicates in Black LJL 96 well plates (HE microplates; Molecular Devices; 20 μl final reaction volume). The substrate concentration for USP8 was 400 nM Ub-AMC (Boston Biochem). The concentrations of the enzyme (USP8) in specificity assays was 630 pM. The concentrations were determined in order to perform specificity assays under initial velocities at fixed substrate concentration. Compounds were pre-incubated with enzymes for 30 minutes at 25° C. Reactions were initiated by addition of substrate to the plates containing the enzymes (+/−compounds) diluted in assay buffer. Reactions were incubated for 60 minutes at 37° C. Reactions were stopped by adding acetic acid (100 mM final). Readings were performed on a Pherastar Fluorescent Reader (BMG). λ Emission 380 nm; λ Excitation=460 nm. Data (mean values +/− standard deviation) were analyzed as % of control (no compound) and plotted as percentage versus the Log of the compound concentration using GraphPad (Prism). Data were fitted to a sigmoidal model (variable slope).

| Compound | IC50 |
| --- | --- |
| O=C1c2ccccc2-c2nn3c(CO)nnc3nc21 [Example 1h/B] | 164 nM |
| Cn1nc2nc3c(nc2n1)-c1ccccc1C3=O [Example 4a, 2-Methyl-2H-1,2,3,4,10-pentaaza-cyclopenta[b]fluoren-9-one] | 10000 nM |
| CCc1nnc2nc3c(nn12)C(=O)c1ccccc1-3 [Example 1d/A, 1-Ethyl-2,3,4,10,10a-pentaaza-cyclopenta[b]fluoren-9-one] | 537 nM |
| Cc1nnc2nc3c(nn12)C(=O)c1ccccc1-3 [Example 1b/A, 1-Methyl-2,3,4,10,10a-pentaaza-cyclopenta[b]fluoren-9-one] | 701 nM |
| 6-(7)-Chloro-1-methyl-2,3,4,10,10a-pentaaza-cyclopenta[b]fluoren-9-one [Example 3/A] | 301 nM |
| Nc1nnc2nc3c(nn12)C(=O)c1ccccc1-3 [Example 1c/A, 1-Amino-2,3,4,10,10a-pentaaza-cyclopenta[b]fluoren-9-one] | 840 nM |
| CC(C)Cc1nnc2nc3c(nn12)C(=O)c1ccccc1-3 [Example 1g/A, 1-Isobutyl-2,3,4,10,10a-pentaaza-cyclopenta[b]fluoren-9-one] | 538 nM |
| O=C1c2ccccc2-c2nc3nn(Cc4ccccc4)nc3nc21 [Example 4b, 2-Benzyl-2H-1,2,3,4,10-pentaaza-cyclopenta[b]fluoren-9-one] | 15000 nM |
| Nc1nnc2nc3c(nn12)-c1ccccc1C3=O [Example 1c/B, 3-Amino-1,2,3a,4,10-pentaaza-cyclopenta[b]fluoren-9-one] | 81 nM |
| CCCc1nnc2nc3c(nn12)C(=O)c1ccccc1-3 [Example 1e/A, 1-Propyl-2,3,4,10,10a-pentaaza-cyclopenta[b]fluoren-9-one] | 952 nM |
| CC(C)Cc1nnc2nc3c(nn12)-c1ccccc1C3=O [Example 1g/B, 3-Isobutyl-1,2,3a,4,10-pentaaza-cyclopenta[b]fluoren-9-one] | 167 nM |
| O=C1c2ccccc2-c2nn3c(Cc4ccccc4)nnc3nc21 [Example 1k/B, 3-Benzyl-1,2,3a,4,10-pentaaza-cyclopenta[b]fluoren-9-one] | 166 nM |
| Cc1nnc2nc3c(nn12)-c1ccc(Cl)cc1C3=O [Example 3/B, 7-Chloro-3-methyl-1,2,3a, 4,10-pentaaza-cyclopenta[b]fluoren-9-one] | 119 nM |
| O=C1c2ccccc2-c2nc3nnc(C4CC4)n3nc21 [Example 1j/A, 1-Cyclopropyl-2,3,4,10,10a-pentaaza-cyclopenta[b]fluoren-9-one] | 2500 nM |
| CCCCc1nnc2nc3c(nn12)C(=O)c1ccccc1-3 [Example 1f/A, 1-Butyl-2,3,4,10,10a-pentaaza-cyclopenta[b]fluoren-9-one] | 830 nM |
| O=C1c2ccccc2-c2nc3nnc(Cc4ccccc4)n3nc21 [Example 1k/A, 1-Benzyl-2,3,4,10,10a-pentaaza-cyclopenta[b]fluoren-9-one] | 663 nM |
| CCCCc1nnc2nc3c(nn12)-c1ccccc1C3=O [Example 1f/B, 3-Butyl-1,2,3a,4,10-pentaaza-cyclopenta[b]fluoren-9-one] | 151 nM |
| O=C1c2ccccc2-c2nc3nnc(CO)n3nc21 [Example 1h/A, 1-Hydroxymethyl-2,3,4,10,10a-pentaaza-cyclopenta[b]fluoren-9-one] | 670 nM |
